# Source: patent US6803501B2 (Monsanto Technology, LLC, priority 2000, dated 2004)
# Assays:
# [1] = tested on: E. coli EPSPS glyphosate-resistant isolate, single amino acid substitution of an alanine for the glycine at position 96; conditions: read-out: apparent Ki for glyphosate; alanine for glycine at position 96; cited from earlier work
# [2] = target: T1, P. hybrida EPSPS variant glypR (Pro-Ser) (Petunia hybrida, UniProt P11043, P178S); assay: kinetic characterization of EPSP synthase (Table 4); assay type: biochemical
# T1 sequence (P11043 73-516 P178S): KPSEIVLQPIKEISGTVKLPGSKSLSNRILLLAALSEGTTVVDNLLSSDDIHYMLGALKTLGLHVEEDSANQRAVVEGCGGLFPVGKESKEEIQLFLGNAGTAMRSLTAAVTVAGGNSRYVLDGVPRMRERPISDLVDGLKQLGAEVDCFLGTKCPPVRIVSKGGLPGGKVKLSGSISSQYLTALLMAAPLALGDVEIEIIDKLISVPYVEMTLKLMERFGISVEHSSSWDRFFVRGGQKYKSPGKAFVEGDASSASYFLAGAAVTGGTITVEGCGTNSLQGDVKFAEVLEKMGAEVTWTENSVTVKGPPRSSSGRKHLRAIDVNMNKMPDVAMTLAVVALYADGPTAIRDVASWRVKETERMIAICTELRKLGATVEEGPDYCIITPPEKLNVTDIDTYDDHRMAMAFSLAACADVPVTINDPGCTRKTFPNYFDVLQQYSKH
# Procedure: (§1) Final sample volumes are approximately 0.5 ml.
# [3] = target: T2, E. indica glypS EPSPS (Eleusine indica, naturally occurring glyphosate sensitive, wild type) (Eleusine indica, UniProt Q95AK0); assay: as above; assay type: biochemical
# T2 construct: plant extract or E. coli SR481 extract
# T2 sequence (Q95AK0 1-445): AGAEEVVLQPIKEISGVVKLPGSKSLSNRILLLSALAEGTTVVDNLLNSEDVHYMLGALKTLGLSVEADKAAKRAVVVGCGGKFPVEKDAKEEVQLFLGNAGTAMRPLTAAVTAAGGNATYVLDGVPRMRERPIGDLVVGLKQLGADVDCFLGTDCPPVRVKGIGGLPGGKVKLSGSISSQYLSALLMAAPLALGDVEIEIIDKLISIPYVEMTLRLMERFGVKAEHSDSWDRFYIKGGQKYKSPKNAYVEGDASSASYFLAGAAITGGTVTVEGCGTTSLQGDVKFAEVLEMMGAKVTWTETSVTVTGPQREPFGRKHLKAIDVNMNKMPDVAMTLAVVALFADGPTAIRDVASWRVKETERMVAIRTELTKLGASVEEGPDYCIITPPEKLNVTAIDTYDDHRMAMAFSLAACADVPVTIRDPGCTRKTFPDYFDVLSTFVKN
# Procedure: as §1
# [4] = tested on: native EPSPS from E. coli (wild type); conditions: read-out: apparent Ki for glyphosate; cited from earlier work
smiles,measurement,setting,value
"O=C(O)CNCP(=O)(O)O [glyphosate, N-phosphonomethylglycine]",Ki,[1],4000 µM
same,Ki,[2],3 µM
same,Ki,[3],0.05 µM
same,Ki,[4],0.5 µM
